Laboratory results reported in ChEMBL document CHEMBL1201862, “PubChem BioAssay data set” (2004).
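Compound exposure: 48 hours, 5 concentrations, 96-well plates. GI50 marks 50% less growth.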 Activity calls are given as the source filed them. Rule as the data show it: active = GI50 up to about 1.1 µM and inactive = higher. Starred links: 1 amine or outer side, 2 acyl side, 3 side chain; linkers in the order of their positions; H or OH if unused. Non-standard residues stand in square brackets, D forms with d. Residues, ends and D or L forms follow the SMILES beside them. *: point of attachment. X47 = CCC(=O)CC1CC(C)CC(C(=O)[*:2])N1[*:1]; X46 = CCCCCCCCC(C)C(=O)*; Aib = CC(C)(N)C(=O)O; X48 = CC(CN(C)CCO)N*

Experiments:
Assay in all cases: NCI-60 cell line screen, 48 h
COLO 205 = system: COLO 205
SNB-75 = system: SNB-75
RXF 393 = system: RXF 393
NCI/ADR-RES = system: NCI/ADR-RES
UO-31 = system: UO-31
HOP-62 = system: HOP-62
SK-MEL-5 = system: SK-MEL-5
HCT-15 = system: HCT-15
PC-3 = system: PC-3
MDA-MB-231 = system: MDA-MB-231
HL-60 = system: HL-60
HT-29 = system: HT-29
NCI-H23 = system: NCI-H23
OVCAR-3 = system: OVCAR-3
ACHN = system: ACHN
MCF7 = system: MCF7
SK-MEL-28 = system: SK-MEL-28
DU-145 = system: DU-145
SF-539 = system: SF-539
LOX IMVI = system: LOX IMVI

OC1(C(O)(c2ccc(-c3ccccc3)cc2)c2ccc(-c3ccccc3)cc2)CCCCC1
GI50 (COLO 205): > 100 µM (inactive)
GI50 (SNB-75): > 100 µM (inactive)
GI50 (RXF 393): > 100 µM (inactive)
GI50 (NCI/ADR-RES): > 100 µM (inactive)
GI50 (UO-31): > 100 µM (inactive)
GI50 (HOP-62): > 100 µM (inactive)
GI50 (SK-MEL-5): 63.4 µM (inactive)
GI50 (HCT-15): 23 µM
GI50 (PC-3): > 100 µM (inactive)
GI50 (MDA-MB-231): > 100 µM (inactive)
GI50 (HL-60): > 100 µM (inactive)
GI50 (HT-29): 87.9 µM (inactive)
GI50 (NCI-H23): > 100 µM (inactive)
GI50 (OVCAR-3): > 100 µM (inactive)
GI50 (ACHN): > 100 µM (inactive)
GI50 (MCF7): 96.8 µM (inactive)
GI50 (SK-MEL-28): > 100 µM (inactive)
GI50 (DU-145): > 100 µM (inactive)
GI50 (SF-539): > 100 µM (inactive)
GI50 (LOX IMVI): > 100 µM (inactive)

CCCCCCCCCCCCCCCCCCNc1ccn(C2OC(COP(=O)(O)OCC3OC(n4ccc(N)nc4=O)C(O)C3O)C(O)C2O)c(=O)n1 (stereo not given)
GI50 (COLO 205): 47.3 µM (inactive)
GI50 (SNB-75): > 100 µM (inactive)
GI50 (RXF 393): > 100 µM (inactive)
GI50 (NCI/ADR-RES): 47.1 µM (inactive)
GI50 (UO-31): 42.4 µM (inactive)
GI50 (HOP-62): 29.6 µM (inactive)
GI50 (SK-MEL-5): > 100 µM (inactive)
GI50 (HCT-15): 55.6 µM
GI50 (PC-3): 39.8 µM (inactive)
GI50 (MDA-MB-231): > 100 µM (inactive)
GI50 (HL-60): 10.2 µM (inactive)
GI50 (HT-29): 37.7 µM (inactive)
GI50 (NCI-H23): 27.5 µM (inactive)
GI50 (OVCAR-3): > 100 µM (inactive)
GI50 (ACHN): 29.9 µM (inactive)
GI50 (MCF7): 45.2 µM (inactive)
GI50 (SK-MEL-28): > 92 µM (inactive)
GI50 (DU-145): 44.2 µM (inactive)
GI50 (SF-539): > 100 µM (inactive)
GI50 (LOX IMVI): 16.5 µM (inactive)

Oc1ccc(/C=N/c2ccccc2O)cc1
GI50 (COLO 205): 30.2 µM (inactive)
GI50 (SNB-75): > 100 µM (inactive)
GI50 (RXF 393): > 100 µM (inactive)
GI50 (NCI/ADR-RES): 75 µM (inactive)
GI50 (UO-31): 25.9 µM (inactive)
GI50 (HOP-62): 67 µM (inactive)
GI50 (SK-MEL-5): 20.2 µM (inactive)
GI50 (HCT-15): 21.3 µM
GI50 (PC-3): 34.1 µM (inactive)
GI50 (MDA-MB-231): 51.1 µM (inactive)
GI50 (HL-60): 12.7 µM (inactive)
GI50 (HT-29): 69 µM (inactive)
GI50 (NCI-H23): 30.3 µM (inactive)
GI50 (OVCAR-3): 40 µM (inactive)
GI50 (ACHN): 60.7 µM (inactive)
GI50 (MCF7): 27.4 µM (inactive)
GI50 (SK-MEL-28): > 100 µM (inactive)
GI50 (DU-145): 17 µM (inactive)
GI50 (SF-539): 71.3 µM (inactive)
GI50 (LOX IMVI): 26.1 µM (inactive)

CCCCCCCCCCCCCCCCCc1nc(Cl)nc(Cl)c1Cl
GI50 (COLO 205): > 100 µM (inactive)
GI50 (SNB-75): > 100 µM (inactive)
GI50 (RXF 393): > 100 µM (inactive)
GI50 (NCI/ADR-RES): > 100 µM (inactive)
GI50 (UO-31): > 100 µM (inactive)
GI50 (HOP-62): > 100 µM (inactive)
GI50 (SK-MEL-5): 17.3 µM (inactive)
GI50 (HCT-15): > 100 µM
GI50 (PC-3): 38.1 µM (inactive)
GI50 (MDA-MB-231): > 100 µM (inactive)
GI50 (HL-60): > 100 µM (inactive)
GI50 (HT-29): > 100 µM (inactive)
GI50 (NCI-H23): > 100 µM (inactive)
GI50 (OVCAR-3): > 100 µM (inactive)
GI50 (ACHN): > 100 µM (inactive)
GI50 (MCF7): > 100 µM (inactive)
GI50 (SK-MEL-28): > 100 µM (inactive)
GI50 (DU-145): > 100 µM (inactive)
GI50 (SF-539): > 100 µM (inactive)
GI50 (LOX IMVI): > 100 µM (inactive)

c1ccc(-c2ccc(-c3ccc(C4=NCCN4)cc3)o2)cc1
GI50 (COLO 205): 1.73 µM (inactive)
GI50 (SNB-75): 2.38 µM (inactive)
GI50 (RXF 393): 2.56 µM (inactive)
GI50 (NCI/ADR-RES): 4.3 µM (inactive)
GI50 (UO-31): 1.71 µM (inactive)
GI50 (HOP-62): 3.67 µM (inactive)
GI50 (SK-MEL-5): 2.08 µM (inactive)
GI50 (HCT-15): 1.87 µM
GI50 (PC-3): 2.23 µM (inactive)
GI50 (MDA-MB-231): 2 µM (inactive)
GI50 (HL-60): 1.79 µM (inactive)
GI50 (HT-29): 1.77 µM (inactive)
GI50 (NCI-H23): 4.32 µM (inactive)
GI50 (OVCAR-3): 5.5 µM (inactive)
GI50 (ACHN): 2.95 µM (inactive)
GI50 (MCF7): 1.91 µM (inactive)
GI50 (SK-MEL-28): 1.8 µM (inactive)
GI50 (DU-145): 3.25 µM (inactive)
GI50 (SF-539): 2.11 µM (inactive)
GI50 (LOX IMVI): 1.93 µM (inactive)

CC1(C)NC(C)(C)/C(=N\O)C(=NO)/C1=N/O
GI50 (COLO 205): > 100 µM (inactive)
GI50 (SNB-75): > 100 µM (inactive)
GI50 (RXF 393): > 100 µM (inactive)
GI50 (NCI/ADR-RES): > 100 µM (inactive)
GI50 (UO-31): > 100 µM (inactive)
GI50 (HOP-62): > 100 µM (inactive)
GI50 (SK-MEL-5): > 100 µM (inactive)
GI50 (HCT-15): > 100 µM
GI50 (PC-3): > 100 µM (inactive)
GI50 (MDA-MB-231): > 100 µM (inactive)
GI50 (HL-60): > 100 µM (inactive)
GI50 (HT-29): > 100 µM (inactive)
GI50 (NCI-H23): > 100 µM (inactive)
GI50 (OVCAR-3): > 100 µM (inactive)
GI50 (ACHN): > 100 µM (inactive)
GI50 (MCF7): > 100 µM (inactive)
GI50 (SK-MEL-28): > 100 µM (inactive)
GI50 (DU-145): > 100 µM (inactive)
GI50 (SF-539): > 100 µM (inactive)
GI50 (LOX IMVI): > 100 µM (inactive)

CO[C@H]1C[C@H](O[C@H]2CC[C@@]3(C)[C@H](CC[C@@H]4[C@@H]3CC[C@]3(C)[C@@H](C5=CC(=O)OC5)CC[C@]43O)C2)O[C@H](C)[C@H]1O
GI50 (COLO 205): 0.0695 µM (active)
GI50 (SNB-75): < 0.0134 µM (active)
GI50 (RXF 393): < 0.01 µM (active)
GI50 (NCI/ADR-RES): < 0.01 µM (active)
GI50 (UO-31): < 0.01 µM (active)
GI50 (HOP-62): < 0.01 µM (active)
GI50 (SK-MEL-5): < 0.01 µM (active)
GI50 (HCT-15): < 0.01 µM
GI50 (PC-3): < 0.01 µM (active)
GI50 (MDA-MB-231): 0.0498 µM (active)
GI50 (HL-60): < 0.01 µM (active)
GI50 (HT-29): < 0.01 µM (active)
GI50 (NCI-H23): < 0.01 µM (active)
GI50 (OVCAR-3): < 0.01 µM (active)
GI50 (ACHN): < 0.01 µM (active)
GI50 (MCF7): < 0.01 µM (active)
GI50 (SK-MEL-28): 0.024 µM (active)
GI50 (DU-145): < 0.01 µM (active)
GI50 (SF-539): < 0.01 µM (active)
GI50 (LOX IMVI): < 0.01 µM (active)

CCCCCCCCC(C)C(=O)N1CCCC1C(=O)N1C(CC(=O)CC)CC(C)CC1C(=O)NC(C)C(=O)NC(C)(C)C(=O)NC(C)(C)C(=O)NC(C(=O)NC(C)C(=O)NC(C)(C)C(=O)NC(C)(C)C(=O)NC(C)CN(C)CCO)C(C)CC (stereo not given) (X46-P[X47]A[Aib][Aib]IA[Aib][Aib]-X48; configuration not given here)
GI50 (COLO 205): 0.0135 µM (active)
GI50 (SNB-75): 0.382 µM (active)
GI50 (RXF 393): 1.85 µM (inactive)
GI50 (NCI/ADR-RES): 0.435 µM (active)
GI50 (UO-31): 0.124 µM (active)
GI50 (HOP-62): 0.116 µM (active)
GI50 (SK-MEL-5): < 0.0135 µM (active)
GI50 (HCT-15): 0.406 µM
GI50 (PC-3): 0.0103 µM (active)
GI50 (MDA-MB-231): 0.56 µM (active)
GI50 (HL-60): < 0.0106 µM (active)
GI50 (HT-29): 0.0261 µM (active)
GI50 (NCI-H23): < 0.01 µM (active)
GI50 (OVCAR-3): < 0.01 µM (active)
GI50 (ACHN): 0.0368 µM (active)
GI50 (MCF7): < 0.01 µM (active)
GI50 (SK-MEL-28): 2.89 µM (inactive)
GI50 (DU-145): 0.0847 µM (active)
GI50 (SF-539): 0.211 µM (active)
GI50 (LOX IMVI): 0.355 µM (active)
